Data published in patent US6897049B1, “Proteins producing an altered immunogenic response and methods of making and using the same” (Genencor International, Inc., priority 1998, dated 2005).

Experiments:
[1] = system: HLA DQ2 molecules; test: In vitro binding assays using EBV-transformed B cell lines; design: species or system human
[2] = system: naïve human CD4+ T-cells; test: T-cell proliferation assay with differentiated dendritic cells and naïve human CD4+ T-cells (tritium incorporation); type: cell-based; details: for T-cell epitope discovered: naïve donors, positive if response at least 3 times baseline
Description: Fresh human peripheral blood cells were collected from “naïve” humans, i.e., persons not known to be exposed to or sensitized to Bacillus lentus protease, for determination of antigenic epitopes in protease from Bacillus lentus and human subtilisin. Naïve humans is intended to mean that the individual is not known to have been exposed to or developed a reaction to protease in the past. Peripheral mononuclear blood cells (stored at room temperature, no older than 24 hours) were prepared for use as follows: Approximately 30 mls of a solution of buffy coat preparation from one unit of whole blood was brought to 50 ml with Dulbecco's phosphate buffered solution (DPBS) and split into two tubes. The samples were underlaid with 12.5 ml of room temperature lymphoprep density separation media (Nycomed density 1.077 g/ml). The tubes were centrifuged for thirty minutes at 600 G. The interface of the two phases was collected, pooled and washed in DPBS. The cell density of the resultant solution was measured by hemocytometer. Viability was measured by trypan blue exclusion.
From the resulting solution, a differentiated dendritic cell culture was prepared from the peripheral blood mononuclear cell sample having a density of 10^8 cells per 75 ml culture flask in a solution as follows: • (1) 50 ml of serum free AIM V media (Gibco) was supplemented with a 1:100 dilution beta-mercaptoethanol (Gibco). The flasks were laid flat for two hours at 37° C. in 5% CO2 to allow adherence of monocytes to the flask wall. • (2) Differentiation of the monocyte cells to dendritic cells was as follows: nonadherent cells were removed and the resultant adherent cells (monocytes) combined with 30 ml of AIM V, 800 units/ml of GM-CSF (Endogen) and 500 units/ml of IL-4 (Endogen); the resulting mixture was cultured for 5 days under conditions at 37° C. in 5% CO2. […] Adherent and non-adherent cells were then centrifuged at 600 G for 5 minutes, washed in DPBS and counted. • (4) The prepared dendritic cells were placed into a 96 well round bottom array at 2×10^4/well in 100 microliter total volume of AIM V media.
CD4+ T cells were prepared from frozen aliquots of the peripheral blood cell samples used to prepare the dendritic cells using the human CD4+ Cellect Kit (Biotex) as per the manufacturers instructions with the following modifications: the aliquots were thawed and washed such that approximately […] will be applied per Cellect column; the cells were resuspended in 4 ml DPBS and 1 ml of the Cell reagent from the Cellect Kit, the solution maintained at room temperature for 20 minutes. […] The resultant CD4+ cell solution was centrifuged, resuspended in AIMV media and the density counted. […]

[3] = system: T-cells of an individual known to be hypersensitive to Bacillus lentus protease; test: T-cell response to peptides in a sample from an individual hypersensitive to Bacillus lentus protease; type: cell-based, human
Text: Peptide E05 represents the region corresponding to 170-173 in protease from Bacillus amyloliquefaciens.
Alanine substitutions were used as substitutions for the purpose of determining the role of any specific residue within the epitope. The legend of FIG. 10 refers to the position of the peptide in which an alanine was substituted, i.e., in peptide E06 (sequence GSISYPARYANAMAV (SEQ ID NO: 210)), G to A=2, S to A=3, I to A=4, S to A=5, Y to A=6, P to A=7, R to A=8, Y to A=9, N to A=10, M to A=11 and V to A=12.

## 70-84: BPN′ peptide of region 70-84, human T cell epitope (GTVAALNNSIGVLGV; UniProt P00782 177-191, looked up, fragment) [Peptide 70-84]
[1]
  binding to HLA DQ2 molecules: bound

## 109-123: BPN′ peptide of region 109-123, human T cell epitope (NGIEWAIANNMDVIN; UniProt P00782 216-230, looked up, fragment) [Peptide 109-123]
[1]
  binding to HLA DQ2 molecules: bound

## A01: peptide derived from Humicola insolens cellulase (Carezyme); legend: A02, residues 70-84 (PGGVAYSCADQTPWA) [Peptide A01]
[2]
  T-cell epitope discovered: T-cell epitopes were discovered

## A12: peptide derived from Thermomyces lanuginosa lipase (Lipolase); legend: B02, residues 83-100 (GDVTGFLALDNTNKLIVL) [Peptide A12]
[2]
  T-cell epitope discovered: T-cell epitopes were discovered

## F06: peptide of Humicola insolens endogluconase, residues 37-51 (SEQ ID NO: 223) (CGWAKKAPVNQPVFS) [Peptide F06]
[2]
  T-cell epitope discovered: T-cell epitopes were discovered

## GSISYPARYANAMAV [Peptide E05, Bacillus lentus protease peptide with region corresponding to 170-173 of B. amyloliquefaciens protease]
[3]
  T-cell response to peptide: highly responsive
[2]; naïve blood samples from unsensitized individuals, response relative to baseline
  immunogenic response (T-cell proliferation) to peptide: marked allergenic response
